Columns and labels:
VEGF-R1 = target: T1, VEGF-R1 (Homo sapiens, UniProt P17948); experiment: ELISA, inhibition of VEGF binding to coated receptor; settings: VEGF-A165b / VEGF-R1; compound at 10 µM; read-out: Percent of binding inhibition (± SD)
T1 construct: purchased R&D Systems, UK 321-FL-050/CF
Protocol: (§1) Elisa test was performed covering a 96-well microplate (BD Biosciences, France, cat n° 353046) surface with 100 µL of 1X PBS, pH 7.4 with Ca^2+ and Mg^2+, (Lonza, France, cat n° 17-513F/12) solution containing 0.2 µg/mL of VEGF-R1 (R&D Systems, UK, cat n° 321-FL-050/CF) or 2 µg/mL of NRP-1 (R&D Systems, UK, cat n° 3870-N1-025). The plate was sealed and incubated overnight at 4°C. After 3 washes with 200 µL of 1X PBS 0.5% (v/v) Tween 20 (Sigma, France, cat n° 34078) (Buffer A), the plate was blocked by adding 200 µL of 1× PBS with 0.5% (w/v) BSA (Eurobio, France, cat n° GAUBSA01-65) and agitated at 37°C for 2 h. […] Luminescence was quantified with an EnVision™ 2101 Multilabel reader (Perkin Elmer, USA) and the data analyzed by Wallac Envision manager software. […] Non-specific binding is defined as the signal measured in the absence of receptor coated on the microplate. The specific binding was calculated as the difference between total binding and non-specific binding. The percentage of inhibition was calculated as following: Inhibition % = 100 × ((Signal measured-non specific binding signal))/((Max binding signal obtained without inhibitor-non specific binding signal without receptor)) [formula]

Neuropilin-1 (NRP-1) = target: T2, Neuropilin-1 (NRP-1) (Homo sapiens, UniProt O14786); experiment: as above; settings: VEGF-A165b / NRP-1; compound at 10 µM; read-out: Percent of binding inhibition (± SD)
T2 construct: purchased R&D Systems, UK 3870-N1-025
T2 sequence (O14786 22-644 isoform O14786-2 limits assumed): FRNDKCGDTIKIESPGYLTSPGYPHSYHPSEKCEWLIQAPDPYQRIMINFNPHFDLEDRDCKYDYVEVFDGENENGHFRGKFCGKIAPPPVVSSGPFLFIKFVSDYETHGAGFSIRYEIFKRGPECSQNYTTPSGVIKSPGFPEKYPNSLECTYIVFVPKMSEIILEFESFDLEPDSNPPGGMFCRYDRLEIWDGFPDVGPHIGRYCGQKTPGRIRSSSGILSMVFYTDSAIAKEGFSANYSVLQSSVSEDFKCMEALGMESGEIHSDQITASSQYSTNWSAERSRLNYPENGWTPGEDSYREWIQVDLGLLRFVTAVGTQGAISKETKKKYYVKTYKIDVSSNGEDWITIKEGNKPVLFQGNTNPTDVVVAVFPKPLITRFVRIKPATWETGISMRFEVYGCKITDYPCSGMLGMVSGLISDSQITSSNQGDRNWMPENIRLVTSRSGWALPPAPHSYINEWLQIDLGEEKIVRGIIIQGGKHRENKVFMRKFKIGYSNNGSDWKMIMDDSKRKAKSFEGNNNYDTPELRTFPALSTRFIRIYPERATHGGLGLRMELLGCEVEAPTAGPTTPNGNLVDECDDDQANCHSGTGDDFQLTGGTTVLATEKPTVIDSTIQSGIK
Protocol: as §1

MDA-MB-231 cells [1] = experiment: In vivo xenograft study, tumor growth; settings: NOD-SCID IL-2Rγ-/- mice, MDA-MB-231 xenograft, 10 or 50 mg/kg, oral gavage three times a week, Figure 5B
Protocol: Female (NOD-SCID, IL-2Rγ^-/-) mice 5-6 weeks old were injected subcutaneously with MDA-MB-231 cells (5.10^6) at a single site on their right flanks. Tumors were allowed to grow to about 100 mm^3 before being pair-matched by tumor size into treatment groups (8 mice/group). One group was treated with vehicles (8 mice receiving cremofor 12.5%/ethanol 12.5%/ H2O), one group was treated with 10 mg/kg of the compound 1 of the invention (8 mice receiving compound 1 + cremofor 12.5%/ethanol 12.5%/ H2O), one group was treated with 50 mg/kg of the compound 1 of the invention (8 mice receiving compound 1+ cremofor 12.5%/ethanol 12.5%/ H2O). All groups received 3 times a week by oral gavages approximately 100 µL of a solution containing the compound 1 of the invention. Mice were weighed regularly to assess toxicity of the treatments and the tumors were measured with calipers (width x width x length x Pi/6) to determine tumor growth. Mice survival was assessed during the study and metastatic development was investigated in lung, spleen and liver.

HUVEC cells = experiment: Tube formation assay; format: cell-based; settings: HUVEC on collagen, VEGF-A165-stimulation, Figure 2
Protocol: Collagen type I (1 mg/ml, BD) was mixed with 0.1N NaOH, 0.1% bicarbonate and 10X in medium EBM-2 and kept on ice until placed into the wells. The assay was prepared in 96-well plate format and the bottom layer of collagen was formed by adding 70 µL of the solution per well and allowing subsequent gelation at 37°C for 30 min. The HUVEC cells were then seeded on collagen at […] cells per well. After monolayer formation (one day), a second layer of collagen 200 µL per well was prepared according to the same protocol and gently placed on top of the cell layer. The compounds of the invention were added to the cells at the adhesion step (concentration corresponding to the Inhibitory Concentration 50 (IC50)). After 24 and 48 h of incubation at 37°C, tube formation was observed and pictures were taken.

MDA-MB-231 cells [2] = experiment: Adhesion test (crystal violet); format: cell-based, human; settings: in vitro, Figure 3A

T1 sequence (P17948 with tags, fused parts or gaps limits assumed): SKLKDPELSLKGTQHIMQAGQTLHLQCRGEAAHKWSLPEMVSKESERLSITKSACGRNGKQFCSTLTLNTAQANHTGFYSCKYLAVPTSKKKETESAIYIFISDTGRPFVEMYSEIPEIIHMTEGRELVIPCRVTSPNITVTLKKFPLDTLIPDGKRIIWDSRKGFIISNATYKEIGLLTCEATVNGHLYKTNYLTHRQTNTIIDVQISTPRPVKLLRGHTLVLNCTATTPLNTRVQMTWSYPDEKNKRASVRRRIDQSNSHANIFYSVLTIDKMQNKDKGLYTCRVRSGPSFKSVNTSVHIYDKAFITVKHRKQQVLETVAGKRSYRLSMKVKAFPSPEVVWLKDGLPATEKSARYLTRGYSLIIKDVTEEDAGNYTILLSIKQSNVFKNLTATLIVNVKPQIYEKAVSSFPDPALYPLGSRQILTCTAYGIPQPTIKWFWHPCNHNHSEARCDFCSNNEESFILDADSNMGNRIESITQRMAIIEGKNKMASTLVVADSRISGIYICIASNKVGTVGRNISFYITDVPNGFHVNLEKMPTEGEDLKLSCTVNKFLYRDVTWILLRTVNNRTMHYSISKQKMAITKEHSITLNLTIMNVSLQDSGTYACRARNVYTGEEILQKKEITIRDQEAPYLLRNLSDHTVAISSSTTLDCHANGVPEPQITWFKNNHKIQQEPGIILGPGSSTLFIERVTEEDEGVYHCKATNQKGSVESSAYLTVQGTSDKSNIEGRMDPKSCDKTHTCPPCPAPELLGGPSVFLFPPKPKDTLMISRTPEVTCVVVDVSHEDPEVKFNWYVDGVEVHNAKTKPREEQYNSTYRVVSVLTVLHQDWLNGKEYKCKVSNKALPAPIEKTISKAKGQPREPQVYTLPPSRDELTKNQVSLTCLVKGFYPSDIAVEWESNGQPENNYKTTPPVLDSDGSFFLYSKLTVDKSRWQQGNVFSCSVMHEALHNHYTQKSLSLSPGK

## CCOc1ccccc1NC(=O)c1ccc(C)c(S(=O)(=O)Nc2ccc(C)cc2)c1 [Compound 1, N-(2-ethoxyphenyl)-4-methyl-3-(N-(p-tolyl)sulfamoyl)benzamide]
VEGF-R1
  inhibition at 10 µM: 23 ± 2.2%
Neuropilin-1 (NRP-1)
  inhibition at 10 µM: 32 ± 3.2%
MDA-MB-231 cells [1]
  development of tumors (tumor size): inhibits the development of tumors
HUVEC cells
  formation of new blood vessels (tube formation): effectively inhibits the formation of new blood vessels
MDA-MB-231 cells [2]
  adhesion of MDA-MB-231 cells: inhibits

From patent EP2823816A1, “Inhibitors of Neuropilin and use thereof for the treatment of Neuropilin-related diseases” (Tragex Pharma, priority 2013, dated 2015)
